Data from patent US20180193365A1, “USE OF HYDROGEN SULFIDE TO PREVENT LENS OPACIFICATION” (Creighton University, priority 2017, published 2018).
Entries after “also recorded” stand apart in the source; their conditions may differ.

Legend:
[1] = system: cultured bovine lenses; test: Lens degradation/opacification of DMEM-cultured bovine lenses (light transmittance, photographs); type: cell-based; conditions: 120 hours; for attenuation of light transmittance compared to untreated DMEM lenses (time=0 hours): 420 nm
[2] = system: cultured bovine lenses; test: H2O2-induced lens degradation/opacification in cultured bovine lenses (light transmittance, photographs); type: cell-based
[3] = system: glutathione (GSH); conditions: 50 mM; 120 hours

SMILES | attenuation of light transmittance compared to untreated DMEM lenses (time=0 hours) ([1]; 3 mM) [%] | attenuation of light transmittance compared to untreated DMEM lenses (time=0 hours) ([1]; 10 mM) [%] | qualitative assessment of lens opacity (photographs against grid) ([1]; 10 mM) | attenuation of H2O2-induced inhibition of light transmittance ([2]; 3 mM, H2O2 50 mM, 120 hours) [%] | qualitative assessment of H2O2-induced lens opacity (photographs against grid) ([2]; 3 mM, H2O2 50 mM, 120 hours) | protection from peroxide-induced lens degradation ([2]; 10 mM, H2O2 50 mM, 120 hours) | decrease of light transmittance compared to DMEM-cultured lenses (time=0 hour) ([2]; 50 mM, after 120 hours) [%] | attenuation of GSH content compared to untreated lenses (time=0 hours) [3] [%]
O=C1O[C@H]([C@@H](O)CO)C(O)=C1O [ascorbic acid] | 60.57 | 57.42 | accelerated the degradation process; also recorded: accelerated lens degradation; also recorded: accelerated clouding of the lens | 9.22 | protected lenses from peroxide-induced degradation | failed to protect |  | 
OO [H2O2, hydrogen peroxide] |  |  |  |  |  |  | 36.76 | 82.56
